From publication PMC4284639, “The Escherichia coli effector EspJ blocks Src kinase activity via amidation and ADP ribosylation” (Nature Communications, 2014)

Target: T1, EspJ28-217 (Escherichia coli, UniProt B7ULW8)
T1 construct: gene E2348C_0723; residues 28-217, lacking N-terminal secretion signal; 15N-labelled for NMR
Test: 1H-15N HSQC NMR titration
Type: binding
Conditions: 0.25 mM 15N-labelled protein, 1 or 10 molar equivalents of NAD+; 50 mM NaPO4 pH 7.4, 200 mM NaCl, 5 mM beta-mercaptoethanol, 10% D2O, 295 K; also ADP-ribose donor with GST-Src (150 uM NAD+ and labelle)

T1 sequence (B7ULW8 entry or part of it): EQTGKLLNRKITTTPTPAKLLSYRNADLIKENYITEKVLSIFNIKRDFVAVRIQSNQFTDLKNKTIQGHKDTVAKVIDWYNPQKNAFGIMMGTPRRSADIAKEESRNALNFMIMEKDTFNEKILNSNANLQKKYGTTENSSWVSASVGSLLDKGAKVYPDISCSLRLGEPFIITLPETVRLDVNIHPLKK

## NC(=O)c1ccc[n+]([C@@H]2O[C@H](COP(=O)(O)OP(=O)(O)OC[C@H]3O[C@@H](n4cnc5c(N)ncnc54)[C@H](O)[C@@H]3O)[C@@H](O)[C@H]2O)c1 [NAD^+]
  chemical shift perturbation: The addition of NAD^+ caused substantial chemical shift perturbations for several resonances
